“Also recorded” adds a separate entry of the source.
Key:
Assay type in all cases: cell-based, human
E006AA cells [1] = test: Seahorse XF bioenergetics assay, glycolytic reserve capacity; details: for glycolytic reserve capacity: in the presence of DOC, compared to control or DOC alone
Description: Seahorse XF bioenergetics assay: Basal glycolytic reserve capacity in PC-3, DU145, and […] PCa cells was assessed using an Agilent seahorse XF glycolytic stress test kit (Agilent Technologies Inc., Wilmington, Del.) and a Seahorse XF96 analyzer (Agilent Technologies Inc., Wilmington, Del.) analyzer as described. ATP production in […] cells after treatment with drug combinations was assessed using a Mito Stress test kit (Agilent Technologies Inc., Wilmington, Del.).

E006AA cells [2] = test: Immunoblot analysis of CC in cytosolic and mitochondrial fractions; details: in combination with DOC (24 hrs)
Description: Subcellular fractionation for the preparation of cytosolic and mitochondrial fractions: Cells were seeded on 15 cm cell culture plates followed by treatment with various compounds for the preparation of cytosolic and mitochondrial fractions as described. Cells were harvested via gentle scraping, washed twice with ice cold 1×PBS, and resuspended in homogenization buffer (20 mM HEPES, pH 7.4; 10 mM KCl; 1.5 mM MgCl2; 1 mM EDTA; 1 mM EGTA; 250 mM sucrose) supplemented with freshly added 1× protease inhibitor cocktail and 1 mM DTT. Cells were incubated in homogenization buffer for 30 min in ice and homogenized using a dounce homogenizer (˜25 strokes using pestle A). Cell homogenates were pre-cleared of unbroken cells and debris using centrifugation at 1000 g for 10 min. The supernatant was collected in new tubes and centrifuged at 12000 rpm for 20 min to obtain a mitochondrial pellet, which was washed 3 times with homogenization buffer and lysed in NP40 buffer, and stored as the mitochondrial fraction. The supernatant was ultra-centrifuged to obtain purified cytosol.
(§1) Immunoblotting: Immunoblotting was performed as described previously. Protein lysates were prepared using a lysis in NP-40 buffer (50 mM Tris-HCl pH 7.4, 150 mM NaCl, 1 mM EDTA, 1 mM EGTA, 1% NP-40) supplemented with protease and phosphatase inhibitor cocktail. Protein content was quantified using a micro BCA protein estimation kit (Thermo Scientific, Waltham, Mass.; Cat #23235). Protein samples were resolved on 4-20% Criterion gels, transferred on nitrocellulose membranes (BioRad, Hercules, Calif.) and subjected to immunoblotting. Membranes were blocked in 5% fat free dry milk (Blotto, Santa Cruz, Dallas, Tex.; Cat #sc-2324) prepared in PBS-T (Tween-20) and incubated overnight in primary antibodies (1:1000 dilution) at 4° C. with continuous shaking. After washing with PBS-T, membranes were incubated in HRP conjugated anti-mouse or anti-rabbit secondary antibody at room temperature for 1 hr. After washing with PBS-T, proteins were detected using Clarity chemiluminescent reagent (BioRad, Hercules, Calif.; Cat #1705061) and X-Ray films (ASI, Fort Lauderdale, Fla.; Cat #XR1570). Membranes were stripped using stripping buffer and probed with HRP conjugated beta-actin antibody to ensure equal loading of proteins.

E006AA cells [3] = test: Immunoblot analysis of CC, cleaved PARP and cleaved caspase-3 in whole cell lysates; details: for CC expression: combined treatment with DOC (10 nM, 24 hrs), c-Myc I 75 μM, NF-κB I 50 μM, AKT Act 5 μM
Description: as §1

[4] = test system: Nrf1 binding with CC promoter in E006AA cells; test: Chromatin immunoprecipitation (ChIP) assay, Nrf1 binding with CC promoter
Description: Chromatin immunoprecipitation (ChIP) assay: The association of Nrf1 transcription factor with CYCS promoter within the LNCaP and E006AA cells was detected using a chromatin immunoprecipitation (ChIP) Assay Kit (Millipore, Billerica, Mass.; Cat #17-295) according to the manufacturer's instructions. In brief, 1 million cells were fixed in formaldehyde for 15 min and chromatin was sheared using Bioruptor sonication device for 10 min in ice with 30 sec on/off cycle (Diagenode, Denville, N.J.). Ten μ1 sonicated samples (of 2 ml total volume) were separated as input. Chromatin was immunoprecipitated with 1.0 μg of Nrf1 or normal rabbit IgG (Santa Cruz Biotechnology) antibody at 4° C. overnight. Each sample (5 μl) was used as a template for PCR amplification and 20 μl of the 50 μl PCR product was loaded onto agarose gels. CYCS oligonucleotide sequence encompasses the CYCS promoter segment that includes the Nrf1 binding sites for PCR primers viz 5′-[…]-3′ [SEQ ID:7] and 5′-[…]-3′ [SEQ ID:8]. PCR mixtures were amplified for 1 cycle at 94° C. for 5 min followed by 35 cycles at 94° C. for 30 s, 55° C. for 30 s and 72° C. for 30 s, and then subjected to final elongation at 72° C. for 10 min. PCR products were run on 2% agarose gel and analyzed using ethidium bromide staining.

[5] = test system: Nrf1 nuclear translocation in E006AA cells; test: Immunoblot analysis of Nrf1 in cytosolic and nuclear fractions
Description: as §1, with “Subcellular fractionation for the preparation of cytosolic and nuclear fractions: Cells were seeded on 10 cm cell culture plates for treatment. Cells were harvested via gently scraping. Cells were collected using centrifugation and washed twice with ice cold PBS. Cells were resuspended in cytosolic buffer (10 mM HEPES, pH 7.4; 10 mM KCl; 0.1 mM EDTA; 0.1 mM EGTA) supplemented with freshly added 1× protease inhibitor cocktail and 1 mM DTT. Cells were incubated in cytosolic buffer for 15 min in ice and 10% NP40 was added (12.4 μl 10% NP40 per 200 μl volume of cytosolic buffer) followed by vigorous vortexing for 45 sec. Cell homogenates were centrifuged at 14000 rpm for 2 min. The supernatant was collected in new tubes and stored as the cytosolic fraction. The nuclear pellet was washed 3 times with cytosolic buffer and lysed in nuclear lysis buffer (10 mM HEPES, 500 mM NaCl, 1 mM EDTA, 1 mM EGTA, 1% NP40) to prepare nuclear extract. Immunoblotting:” for “Immunoblotting:”

[6] = combined treatment with DOC (24 hrs)

Compound: Cc1ccc(NCCCc2ccccc2)c(N)c1 [NF-κB inhibitor, JSH-23]
- glycolytic reserve capacity (E006AA cells [1]): inhibited glycolytic reserve capacity
- CC release (E006AA cells [2]): resulted in CC release
- PARP cleavage (E006AA cells [3]; agent alone): only a modest increase
- CC expression (E006AA cells [3]): Increased CC expression
- PARP cleavage (E006AA cells [3]; [6]): PARP cleavage
- binding of Nrf1 to the CC promoter ([4]; agent alone): enhanced binding of Nrf1 to the CC promoter
- binding of Nrf1 to the CC promoter ([4]; combined with DOC (24 hrs)): enhanced binding of Nrf1 to the CC promoter
- translocation of Nrf1 to nucleus ([5]; agent alone): Enhanced translocation of Nrf1 to nucleus
- translocation of Nrf1 to nucleus ([5]; combined with DOC (24 hrs)): Enhanced translocation of Nrf1 to nucleus

Compound: CCc1ccc(/C=C2/SC(=S)NC2=O)cc1 [c-Myc inhibitor, 10058-F4]
- glycolytic reserve capacity (E006AA cells [1]): inhibited glycolytic reserve capacity
- CC release (E006AA cells [2]): CC release only in combination treatment; also recorded: resulted in CC release
- PARP cleavage (E006AA cells [3]; agent alone): only a modest increase
- CC expression (E006AA cells [3]): Increased CC expression
- PARP cleavage (E006AA cells [3]; [6]): PARP cleavage
- binding of Nrf1 to the CC promoter ([4]; agent alone): enhanced binding of Nrf1 to the CC promoter
- binding of Nrf1 to the CC promoter ([4]; combined with DOC (24 hrs)): enhanced binding of Nrf1 to the CC promoter
- translocation of Nrf1 to nucleus ([5]; agent alone): Enhanced translocation of Nrf1 to nucleus
- translocation of Nrf1 to nucleus ([5]; combined with DOC (24 hrs)): Enhanced translocation of Nrf1 to nucleus

Compound: bisperoxovanadium 5-hydroxipyridine [AKT activator]
- glycolytic reserve (E006AA cells [1]; agent alone): inhibited glycolytic reserve
- glycolytic reserve capacity (E006AA cells [1]): inhibited glycolytic reserve capacity
- CC release (E006AA cells [2]): CC release only in combination treatment; also recorded: resulted in CC release
- PARP cleavage (E006AA cells [3]; agent alone): only a modest increase
- CC expression (E006AA cells [3]): Increased CC expression
- PARP cleavage (E006AA cells [3]; [6]): PARP cleavage
- binding of Nrf1 to the CC promoter ([4]; agent alone): enhanced binding of Nrf1 to the CC promoter
- binding of Nrf1 to the CC promoter ([4]; combined with DOC (24 hrs)): enhanced binding of Nrf1 to the CC promoter
- translocation of Nrf1 to nucleus ([5]; agent alone): Enhanced translocation of Nrf1 to nucleus
- translocation of Nrf1 to nucleus ([5]; combined with DOC (24 hrs)): Enhanced translocation of Nrf1 to nucleus

From US20220088031A1, “METHODS AND COMPOSITIONS FOR TREATING RESISTANT AND RECURRENT FORMS OF CANCER” (Health Research, Inc., priority 2019, published 2022)
